# In patent publication US4056540A, “4-Phenyl-1,3-benzodioxans” (Bristol-Myers Company, priority 1975, dated 1977):
# Where a name gives a salt, the structure may show the parent alone. Read-outs that look alike come from different tables or passages of the source.
# Assays:
# in vivo = settings: mouse, po, 24 hours observation
# Description: hours following drug administration.
# audiogenic seizures = experiment: Audiogenic Seizures, mouse; type: in vivo; settings: for blocking of tonic convulsions induced by audiogenic seizures: result in words; for ED50: 1 h, po, read-out: ED50 Audiogenic Seizure Mouse
# Procedure: (§1) ^1 Test compounds including reference agents were administered orally
# (§2) either as water solutions or as fine suspensions in Tween by gastric
# (§3) intubation 60 min prior to the test. There were at least 3 animals per
# ^3 Audiogenic Seizures - Mice, which were genetically bred for the
# susceptability to sound induced seizures (O'Grady Farms) were placed into
# the sound attenuated box and exposed to a 120 sec sound stimulus of 85 db
# and 10,000 c/sec frequincy. Prevention of tonic extension of hind limbs
# was used as a criterion for drug effect.
# [1] = test system: pentylenetetrazole lethality; experiment: Pentylenetetrazol Standard Dose, mouse; type: in vivo; settings: for effectiveness against pentylenetetrazole: result in words, species not given; for ED50: 1 h, mouse, po, pentylenetetrazol 125 mg/kg ip, prevention of lethality (footnote 5)
# Description: (§4) There were at least 3 animals per
# (§5) Prevention of lethality was used as criterion for […]
# [2] = test system: tonic convulsions induced by maximal electroshock; experiment: Maximal Electroshock Test, mouse; type: in vivo; settings: for ED50: 1 h, po, read-out: ED50 Maximal Electroshock Mouse; for blocking of tonic convulsions induced by maximal electroshock: result in words, species not given
# Procedure: as §1, §2, §3
# (§6) ^2 Maximal Electroshock Test - Animals were subjected to an 80mA shoc
# (§7) of 0.5 sec duration by a means of corneal electrodes using the specially
# (§8) designed apparatus manufactured by Wahlquist Instrument Co. Prevention of
# (§9) tonic extension by hind limbs was used as a criterion for drug effect.
# [3] = test system: pentylenetetrazole lethality; experiment: Pentylenetetrazol Standard Dose, rat; type: in vivo; settings: 1 h, po, pentylenetetrazol 125 mg/kg ip, prevention of lethality (footnote 5)
# Description: as §4, §5
# [4] = test system: pentylenetetrazole convulsions; experiment: Pentylenetetrazol Infusion (Mouse); type: in vivo; settings: for ED50: 1 h, po, read-out: ED50 Pentylenetetrazole Mouse (infusion); for antagonism of all the excitatory signs induced by pentylenetetrazol: clonic and tonic convulsions and lethality, result in words
# Description: as §4
# ^4 Pentylenetetrazol Infusion (Mouse) - The procedure originally
# described by Orloff, M. H. et al., Proc. Soc. Exp. Biol. 70:254 (1949) an
# adopted by our laboratories was used.
# [5] = test system: tonic convulsions induced by maximal electroshock; experiment: Maximal Electroshock Test, rat; type: in vivo; settings: 1 h, po, read-out: ED50 Maximal Electroshock Rat
# Procedure: as §1, §2, §3, §6, §7, §8, §9
# [6] = Effect on aortic blood pressure in the ouabain-arrhythmia anesthetized dog; type: in vivo; settings: iv; for effect on aortic blood pressure: result in words
# Procedure: (§10) Anesthetized dogs were used for the production of ouabain-induced ventricular arrhythmias. The arrhythmia consisted of a nodal or ventricular tachycardia. The procedure used to establish the arrhythmia as well as the criteria employed to determine anti-arrhythmic activity generally was that employed by Lucchesi et al. ^1
# Anti-arrhythmic activity of the compounds was determined by rapid intravenous injection and compared to lidocaine, disopyramide and aprindine The average prolonged reversion doses are shown below: […]
# [7] = test system: ouabain-induced ventricular arrhythmias; experiment: Reversion of ouabain-induced arrhythmia in anesthetized dogs; type: in vivo, dog; settings: for ED100: Canis lupus familiaris, 0.5 h, read-out: I. V. Reverting Dose
# Procedure: The compounds were also tested in dogs for their reversion activity in ouabain-induced arrhythmia.
# as §10
# 1. Lucchesi, B. L. and H. F. Hardman: The influence of dichloroisoproterenol (DCI) and related compounds upon ouabain and acetylstrophanthidin induced cardiac arrhythmias.
# [8] = mouse, 60 min prior to test, prevention of tonic extension of hind limbs
# [9] = mouse, pentylenetetrazol infusion (footnote 4)
# [10] = rat, 60 min prior to test, prevention of tonic extension of hind limbs
# [11] = anesthetized dog, rapid intravenous injection, IV ED100, normal sinoatrial rhythm for greater than 30 mins
# [12] = mouse, 60 min prior to test, prevention of tonic extension
structure (smiles),measurement,setting,value
NC[C@@H]1Oc2ccc(Cl)cc2[C@H](c2ccccc2)O1 (relative stereo) [BL-3069],LD50 at 24 h,in vivo,300 mg/kg
same,blocking of tonic convulsions induced by audiogenic seizures,audiogenic seizures,effective blocking agents of tonic convulsions
same,effectiveness against pentylenetetrazole,[1],practically ineffective
same,ED50,[2]; [8],25 mg/kg
same,blocking of tonic convulsions induced by maximal electroshock,[2],effective blocking agents of tonic convulsions
same,ED50,[3],> 40 mg/kg
same,ED50,[4]; [9],12 mg/kg
same,ED50,[5]; [10],> 20 mg/kg
CNC[C@@H]1Oc2ccc(Cl)cc2[C@@H](c2ccccc2)O1 (relative stereo) [BL-3100],Decrease in mean aortic pressure,[6],50 mmHg
same,ED100,[7]; [11],> 10 mg/kg
CNC(=O)[C@@H]1Oc2ccc(Cl)cc2[C@@H](c2ccccc2)O1 (relative stereo) [BL-3167],ED100,[7]; [11],> 10 mg/kg
"CNC[C@H]1Oc2ccc(Cl)cc2[C@@H](c2ccccc2)O1.Cl (relative stereo) [BL-3168, cis-6-Chloro-2-methylaminomethyl-4-phenyl-1,3-benzodioxan hydrochloride]",Decrease in mean aortic pressure,[6],20 mmHg
same,LD50 at 24 h,in vivo,300 mg/kg
same,ED50,audiogenic seizures; [12],2.5 mg/kg
same,blocking of tonic convulsions induced by audiogenic seizures,audiogenic seizures,effective blocking agents of tonic convulsions
same,ED50,[1],> 50 mg/kg
same,effectiveness against pentylenetetrazole,[1],practically ineffective
same,ED50,[2]; [8],10 mg/kg
same,blocking of tonic convulsions induced by maximal electroshock,[2],effective blocking agents of tonic convulsions
same,ED100,[7]; [11],> 10 mg/kg
same,ED50,[3],> 40 mg/kg
same,ED50,[4]; [9],5 mg/kg
same,ED50,[5]; [10],15 mg/kg
CC(C)NC(=O)[C@@H]1Oc2ccc(Cl)cc2[C@@H](c2ccccc2)O1 (relative stereo) [BL-3374],ED100,[7]; [11],> 10 mg/kg
CC(C)NC[C@@H]1Oc2ccc(Cl)cc2[C@@H](c2ccccc2)O1 (relative stereo) [BL-3379],ED100,[7]; [11],> 10 mg/kg
CC(C)NC[C@@H]1Oc2ccccc2[C@@H](c2ccccc2)O1 (relative stereo) [BL-3394],effect on aortic blood pressure,[6],gressive fall in aortic
same,ED100,[7]; [11],~10 mg/kg
"CC(C)NC[C@@H]1Oc2ccc(Cl)cc2[C@H](c2ccccc2)O1 (relative stereo) [BL-3396, cis-6-Chloro-4-phenyl-2-(2-propylaminomethyl)-1,3-benzodioxan hydrochloride]",LD50 at 24 h,in vivo,400 mg/kg
same,ED50,audiogenic seizures; [12],2.5 mg/kg
same,ED50,[1],> 50 mg/kg
same,ED50,[2]; [8],10 mg/kg
same,ED50,[3],> 40 mg/kg
same,ED50,[4]; [9],3 mg/kg
same,ED50,[5]; [10],10 mg/kg
CC(C)NC[C@@H]1Oc2ccccc2[C@H](c2ccccc2)O1 (relative stereo) [BL-3418],ED100,[7]; [11],3 to 5 mg/kg
"CC(C)NC[C@H]1Oc2ccc(Cl)cc2[C@H](c2ccccc2F)O1.Cl (relative stereo) [BL-3681A, trans-6-Chloro-4-(2-fluorophenyl)-2-(2-propylaminomethyl)-1,3-benzodioxan hydrochloride]",LD50 at 24 h,in vivo,300 mg/kg
same,ED50,audiogenic seizures; [12],10 mg/kg
same,blocking of tonic convulsions induced by audiogenic seizures,audiogenic seizures,effective blocking agents of tonic convulsions
same,ED50,[1],> 50 mg/kg
same,effectiveness against pentylenetetrazole,[1],practically ineffective
same,ED50,[2]; [8],12 mg/kg
same,blocking of tonic convulsions induced by maximal electroshock,[2],effective blocking agents of tonic convulsions
same,ED50,[3],> 40 mg/kg
same,ED50,[4]; [9],12 mg/kg
same,ED50,[5]; [10],15 mg/kg
CNC(=O)[C@@H]1Oc2ccc(Cl)cc2[C@H](c2ccccc2)O1 (relative stereo) [BL-4093],ED100,[7]; [11],> 10 mg/kg
"CN(C)CCCNC(=O)[C@H]1Oc2ccc(Cl)cc2[C@H](c2ccccc2)O1.Cl (relative stereo) [BL-4932A, trans-6-Chloro-4-phenyl-N-(3-dimethylaminopropyl)-1,3-benzodioxan-2-carboxamide hydrochloride]",transient fall in aortic blood pressure,[6]; at 10 mg/kg (N=2),50 mmHg
same,Transient reversion at,"[7]; anesthetized dog, iv, transient reversion only (N=2)",10 mg/kg
"CN(C)CCCNC(=O)[C@H]1Oc2ccc(Cl)cc2[C@@H](c2ccccc2)O1.Cl (relative stereo) [BL-4971A, cis-6-Chloro-4-phenyl-N-(3-dimethylaminopropyl)1,3-benzodioxan-2-carboxamide hydrochloride]",effect on aortic blood pressure,[6],No appreciable effect
same,ED100,[7]; [11],5 mg/kg
"CN(C)CCCNC(=O)[C@H]1Oc2ccccc2[C@@H](c2ccccc2)O1.Cl (relative stereo) [BL-4981A, cis-4-Phenyl-N-(3-dimethylaminopropyl)-1,3-benzodioxan-2-carboxamide hydrochloride]",ED100,[7]; [11],> 10 mg/kg
"CCN(CC)CCCN(c1ccccc1)C1Cc2ccccc2C1 [Aprindine, reference compound]",ED100,[7]; [11],2.46 ± 0.83 mg/kg
"CN1C(=O)CN=C(c2ccccc2)c2cc(Cl)ccc21 [Diazepam, reference compound]",ED50,audiogenic seizures; Mus musculus,0.5 mg/kg
same,ED50,[2]; Mus musculus,6 mg/kg
same,antagonism of all the excitatory signs induced by pentylenetetrazol,[4],able to antagonize all the excitatory signs
same,ED50,[5]; Rattus norvegicus,10 mg/kg
"O=C1NC(=O)C(c2ccccc2)(c2ccccc2)N1 [Diphenylhydantoin Na, reference compound]",ED50,audiogenic seizures; [12],10 mg/kg
same,ED50,[1],> 50 mg/kg
same,ED50,[2]; [8],10 mg/kg
same,ED50,[3],40 mg/kg
same,ED50,[4]; [9],20 mg/kg
same,ED50,[5]; [10],30 mg/kg
"CC(C)N(CCC(C(N)=O)(c1ccccc1)c1ccccn1)C(C)C (centres unmarked) [Disopyramide, reference compound]",ED100,[7]; [11],4.5 ± 1.3 mg/kg
"CCN(CC)CC(=O)Nc1c(C)cccc1C [Lidocaine, reference compound]",ED100,[7]; iv,6.4 ± 1.4 mg/kg
"CCC1(c2ccccc2)C(=O)NC(=O)NC1=O [Phenobarbital Na, reference compound]",LD50 at 24 h,in vivo,265 mg/kg
same,ED50,audiogenic seizures; Mus musculus,2.5 mg/kg
same,ED50,[1],15 mg/kg
same,ED50,[2]; Mus musculus,10 mg/kg
same,ED50,[3],20 mg/kg
same,ED50,[4]; Mus musculus,8 mg/kg
same,antagonism of all the excitatory signs induced by pentylenetetrazol,[4],able to antagonize all the excitatory signs
same,ED50,[5]; Rattus norvegicus,8 mg/kg
"CN1C(=O)OC(C)(C)C1=O [Trimethadione, reference compound]",LD50 at 24 h,in vivo,2170 mg/kg
same,ED50,audiogenic seizures; [12],150 mg/kg
same,ED50,[1],400 mg/kg
same,ED50,[2]; [8],> 400 mg/kg
same,ED50,[3],100 mg/kg
same,ED50,[4]; [9],200 mg/kg
same,antagonism of all the excitatory signs induced by pentylenetetrazol,[4],able to antagonize all the excitatory signs
same,ED50,[5]; [10],300 mg/kg
